Patent publication US11548899B2, “Fused 1,4-oxazepines and related analogs as BET bromodomain inhibitors” (THE REGENTS OF THE UNIVERSITY OF MICHIGAN, priority 2016, dated 2023)
Several values for one entry are separate records, joined by “and”; a condition that tells them apart may be missing. Equal entries are not always repeated. Where two headings read alike, the source gives them in different places.

Legend:
recombinant BRD4 BD1 = target: T1, recombinant BRD4 BD1 (Homo sapiens, UniProt O60885); assay: Competitive fluorescence-polarization (FP) binding assay, BRD4 BD1; details: FP competitive binding; protein 10 nM, probe 1.5 nM; read-out: IC50 (nM) BRD4 BD1
T1 construct: recombinant BRD4 BD1 and BRD4 BD2 proteins
Method: Fluorescence Polarization (FP) competitive binding studies were carried out using a FAM labeled fluorescent probe, see Cpd. […] Equilibrium dissociation constants (Kd) values of the fluorescent probe to BRD4 BD1 and BD2 proteins were determined from protein saturation experiments by monitoring the total fluorescence polarization of mixtures composed with the fluorescent probe at a fixed concentration and proteins with increasing concentrations up to full saturation. […] Plates were incubated at room temperature for 30 minutes with gentle shaking to assure equilibrium.
The IC50 and Ki values of compounds were determined in a competitive binding experiment. […] Mixtures of 10 μl of the tested compounds in assay buffer with 40% Ethylene Glycol and 190 μl of preincubated protein/probe complex solution in the assay buffer (100 mM potassium phosphate, pH 6.5, 0.01% Triton X-100) were added into assay plates which were incubated at room temperature for 30 minutes with gentle shaking. Final concentrations of proteins were 10 and 6 nM in assays for BRD4 BD1 and BD2, respectively. […] FP values were measured as described above. IC50 values were determined by nonlinear regression fitting of the competition curves.

recombinant BRD4 BD2 = target: T2, recombinant BRD4 BD2 (Homo sapiens, UniProt O60885); assay: Competitive fluorescence-polarization (FP) binding assay, BRD4 BD2; details: protein 6 nM, probe 1.5 nM
T2 construct: recombinant BRD4 BD1 and BRD4 BD2 proteins
Method: Fluorescence Polarization (FP) competitive binding studies were carried out using a FAM labeled fluorescent probe, see Cpd. […] Equilibrium dissociation constants (Kd) values of the fluorescent probe to BRD4 BD1 and BD2 proteins were determined from protein saturation experiments by monitoring the total fluorescence polarization of mixtures composed with the fluorescent probe at a fixed concentration and proteins with increasing concentrations up to full saturation. Serial dilutions of testing proteins were mixed with the fluorescent probe to a final volume of 200 μl in the assay buffer (100 mM phosphate buffer, pH=6.5, 0.01% Triton X-100 (Sigma, 282103) being added right before assays). Final fluorescent probe concentration was 1.5 nM for both proteins. Plates were incubated at room temperature for 30 minutes with gentle shaking to assure equilibrium. FP values in millipolarization units (mP) were measured using the Infinite M-1000 plate reader (Tecan U.S., Research Triangle Park, N.C.) in Microfluor 1 96-well, black, round-bottom plates (Thermo Scientific, Waltham, Mass.) at an excitation wavelength of 485 nm and an emission wavelength of 530 nm.
The IC50 and Ki values of compounds were determined in a competitive binding experiment. […] Mixtures of 10 μl of the tested compounds in assay buffer with 40% Ethylene Glycol and 190 μl of preincubated protein/probe complex solution in the assay buffer (100 mM potassium phosphate, pH 6.5, 0.01% Triton X-100) were added into assay plates which were incubated at room temperature for 30 minutes with gentle shaking. Final concentrations of proteins were 10 and 6 nM in assays for BRD4 BD1 and BD2, respectively. Final probe concentration is 1.5 nM in both assays. […] FP values were measured as described above. IC50 values were determined by nonlinear regression fitting of the competition curves.

RS4-11 = assay: Cell growth inhibition, 4-day proliferation assay, RS4-11; format: cell-based; details: read-out: Cell Viability (IC50, μM) RS4-11
Method: (§1) The effect of representative Compounds of the Disclosure on cell viability was determined in a 4-day proliferation assay. Cells were maintained in the appropriate culture medium with 10% FBS at 37° C. and an atmosphere of 5% CO2. All the cell lines were used within three months of thawing fresh vials.
(§2) Cells were seeded in 96-well flat bottom (Corning COSTAR, Corning, N.Y., cat #3595) or white opaque cell culture plates (BD Falcon, cat #353296) at a density of 3,000-10,000 cells/well in 75 μl of culture medium. Compounds were serially diluted in the appropriate medium, and 75 μl of the diluted compounds were added to the appropriate wells of the cell plate. After the addition of compounds, the cells were incubated at 37° C. in an atmosphere of 5% CO2 for 4 days. Cell viability was determined using the CellTiter-Glo® Luminescent Cell Viability Assay Kit (Promega, Madison, Wis.) for leukemia cells and WST (2-(2-methoxy-4-nitrophenyl)-3-(4-nitrophenyl)-5-(2,4-disulfophenyl)-2H-tetrazolium, monosodium salt) Cell Counting-8 Kit (Dojindo Molecular Technologies, Inc., Rockville, Md.) for adhenrent cells according to the manufacturers' instructions. […]
(§3) For CellTiter-Glo assay (suspension cells), 100 μl of CellTiter-Glo® Reagent was added to each well, and then the plates were incubated at room temperature for 10-20 minutes. The luminescent signal was measured using a Tecan Infinite M1000 multimode microplate reader (Tecan, Morrisville, N.C.). The readings were normalized to the DMSO-treated cells and the IC50 was calculated by nonlinear regression (four parameters sigmoid fitted with variable slope, least squares fit, and no constraint) analysis using the GraphPad Prism 5 software. See US 2014/0256706.

MOLM-13 = assay: Cell growth inhibition, 4-day proliferation assay, MOLM-13; format: cell-based; details: read-out: Cell Viability (IC50, μM) MOLM-13
Method: as §1, §2, §3

[1] = Homo sapiens, RS4-11, 96 h, 4 days incubation, RS4-11 cells
[2] = Homo sapiens, MOLM-13, 96 h, 4 days incubation, MOLM-13 cells
[3] = 4 days incubation, RS4-11 cells
[4] = 4 days incubation, MOLM-13 cells

Structure (SMILES)	IC50 (recombinant BRD4 BD1)	IC50 (recombinant BRD4 BD2)	IC50 (RS4-11; [1]) [µM]	IC50 (MOLM-13; [2]) [µM]	IC50 (RS4-11; [3]) [µM]	IC50 (MOLM-13; [4]) [µM]	IC50 (RS4-11; Homo sapiens, RS4-11, 96 h) [µM]	IC50 (MOLM-13; Homo sapiens, MOLM-13, 96 h) [µM]
Cc1sc2c(c1Cc1ccccc1)CNCc1nnc(C)n1-2 [Cpd. No. 15, 3-benzyl-2,9-dimethyl-5,6-dihydro-4H-thieno[3,2-f][1,2,4]triazolo[4,3-a][1,4]diazepine]	531 nM and 751 nM	102 nM and 111 nM	2.7	2	–	–	–	–
Cc1nnc2n1-c1sc(C#Cc3ccc(N)nc3)c(Cc3ccccc3)c1COC2 [Cpd. No. 89, 5-((3-benzyl-9-methyl-4,6-dihydrothieno[2,3-e][1,2,4]triazolo[3,4-c][1,4]oxazepin-2-yl)ethynyl)pyridin-2-amine]	8.7 nM	315 nM	0.62	0.28	–	–	–	–
Cc1sc2c(c1Cc1ccc(F)cc1)COCc1nnc(C)n1-2 [Cpd. No. 103, 3-(4-fluorobenzyl)-2,9-dimethyl-4H,6H-thieno[2,3-e][1,2,4]triazolo[3,4-c][1,4]oxazepine]	115 nM and 70.4 nM	213 nM	1	1.1	0.95	0.67	–	–
Cc1sc2c(c1Nc1cc(C3CC3)nn1C)COCc1nnc(C)n1-2 [Cpd. No. 7, N-(3-cyclopropyl-1-methyl-H-pyrazol-5-yl)-2,9-dimethyl-4H,6H-thieno[2,3-e][1,2,4]triazolo[3,4-c][1,4]oxazepin-3-amine]	171 nM and 311 nM	1160 nM and 1260 nM	4.2	2.8	–	–	–	–
Cc1sc2c(c1Nc1ccccc1)COCc1nnc(C)n1-2 [Cpd. No. 6, 2,9-dimethyl-N-phenyl-4H,6H-thieno[2,3-e][1,2,4]triazolo[3,4-c][1,4]oxazepin-3-amine]	317 nM and 629 nM	346 nM and 457 nM	–	–	–	–	4.5	> 5
Cc1nnc2n1-c1sc(C#Cc3cnn(C)c3)c(Cc3ccccc3)c1CO[C@H]2C [Cpd. No. 85, (S)-3-benzyl-6,9-dimethyl-2-((1-methyl-1H-pyrazol-4-yl)ethynyl)-4,6-dihydrothieno[2,3-e][1,2,4]triazolo[3,4-c][1,4]oxazepine]	7.3 nM and 8.1 nM	48.3 nM and 60.3 nM	0.14	0.16	0.12	0.1	–	–

Second part, led by results:

IC50 (recombinant BRD4 BD1)	IC50 (recombinant BRD4 BD2)	IC50 (RS4-11; [1]) [µM]	IC50 (MOLM-13; [2]) [µM]	IC50 (RS4-11; [3]) [µM]	IC50 (MOLM-13; [4]) [µM]	Structure (SMILES)	IC50 (RS4-11; Homo sapiens, RS4-11, 96 h) [µM]	IC50 (MOLM-13; Homo sapiens, MOLM-13, 96 h) [µM]
371 nM	328 nM and 379 nM	4.7	4	–	–	Cc1sc2c(c1Cc1ccccc1)CN(C(=O)OCc1ccccc1)[C@@H](C)c1nnc(C)n1-2 [Cpd. No. 12, benzyl (S)-3-benzyl-2,6,9-trimethyl-4H-thieno[3,2-f][1,2,4]triazolo[4,3-a][1,4]diazepine-5(6H)-carboxylate]	–	–
634 nM	2320 nM	3.5	3.8	–	–	Cc1nnc2n1-c1sc(C#N)c(Cc3ccccc3)c1COC2 [Cpd. No. 110, 3-benzyl-9-methyl-4H,6H-thieno[2,3-e][1,2,4]triazolo[3,4-c][1,4]oxazepine-2-carbonitrile]	–	–
85 nM and 112 nM	118 nM and 145 nM	2.4	1.9	–	–	Cc1sc2c(c1Cc1ccccc1)CN(C(=O)OCc1ccccc1)Cc1nnc(C)n1-2 [Cpd. No. 14, benzyl 3-benzyl-2,9-dimethyl-4H-thieno[3,2-f][1,2,4]triazolo[4,3-a][1,4]diazepine-5(6H)-carboxylate]	–	–
99.6 nM and 93.8 nM	125 nM and 120 nM	1	1.1	–	0.81	Cc1sc2c(c1Cc1ccccc1)COC(C)c1nnc(C)n1-2 (stereo not drawn) [Cpd. No. 109, 3-benzyl-2,6,9-trimethyl-4H,6H-thieno[2,3-e][1,2,4]triazolo[3,4-c][1,4]oxazepine]	–	–
